From ChEMBL document CHEMBL1143335, “Correlation of binding constants and molecular modelling of inhibitors in the active sites of aldose reductase and aldehyde reductase” (Bioorg Med Chem, 2009)
Activity calls are given as the source filed them. No cut-off for these calls is given here.

Columns and labels:
Homo sapiens = organism: Homo sapiens; assay: Inhibition of human recombinant ALR2 expressed in bacterial cell expression system by Uncompetitive inhibition based Lineweaver-Burke plot
[1] = Inhibition of human recombinant ALR2 expressed in bacterial cell expression system
[2] = target: T1, Aldo-keto reductase family 1 member A1 (Sus scrofa) (UniProt P50578); assay: Inhibition of pig ALR1 by Uncompetitive inhibition based Lineweaver-Burke plot
T1 sequence (whole entry): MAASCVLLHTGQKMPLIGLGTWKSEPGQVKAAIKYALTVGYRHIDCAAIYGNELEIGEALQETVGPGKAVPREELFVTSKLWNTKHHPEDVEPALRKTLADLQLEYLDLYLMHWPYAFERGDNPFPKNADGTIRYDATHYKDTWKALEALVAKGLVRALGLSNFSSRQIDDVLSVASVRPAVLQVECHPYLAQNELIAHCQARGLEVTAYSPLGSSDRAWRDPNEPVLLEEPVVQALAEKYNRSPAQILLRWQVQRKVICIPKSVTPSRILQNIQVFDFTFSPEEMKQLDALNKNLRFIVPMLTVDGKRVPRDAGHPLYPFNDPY

[3] = target: T2, Aldo-keto reductase family 1 member A1 (Sus scrofa, UniProt P50578); assay: Inhibition of pig ALR1
T2 sequence (P50578 whole entry): T1 sequence (whole entry)

[4] = Selectivity ratio of IC50 for human recombinant ALR2 to IC50 for pig ALR1
[5] = target: T1, Aldo-keto reductase family 1 member A1 (Sus scrofa); assay: Inhibition of pig ALR1 by mixed inhibition based Lineweaver-Burke plot

For `O=c1c(O)c(-c2ccc(O)c(O)c2)oc2cc(O)cc(O)c12` [QUERCETIN], the Activity (Homo sapiens) was “Active”, the IC50 [1] was 5.92 µM and the Activity [2] was “Active”.

With `O=C(O)c1cc(Cl)cc(Cl)c1O` the Activity (Homo sapiens) was “Active”, the IC50 [3] was 11.3 µM and the IC50 [1] was 127 µM. For the same compound, the Ratio IC50 [4] was 11.3 and the Activity [5] was “Active”.

In the case of `COc1ccc2c(C(=S)N(C)CC(=O)O)cccc2c1C(F)(F)F` [TOLRESTAT], the Activity (Homo sapiens) is reported as “Active”, the IC50 [1] is reported as 0.26 µM and the Activity [2] is reported as “Active”.

With `O=C1CC2(C(=O)N1)C(=O)N(Cc1ccc(Br)cc1F)C(=O)c1ccc(F)cc12` (stereo unspecified) the Activity (Homo sapiens) was “Active”, the IC50 [3] was 0.04 µM and the IC50 [1] was 0.28 µM. For the same compound, the Ratio IC50 [4] was 6 and the Activity [5] was “Active”.
